Values quoted from earlier work, collected in patent US10590413B2, “Chiral control” (WAVE LIFE SCIENCES LTD., priority 2012, dated 2020).
Like-named read-outs stand apart in the source and are kept apart here.

Legend:
NK Lytic Activity = conditions: cited from earlier work; for NK Lytic Activity (LU): human PBMC cultured with ODN 6 μg/ml for 24 hr, lysis of 51Cr-labeled K562 cells; for LU (NK lytic activity): human PBMC, ODN 6 μg/ml for 24 hr, lysis of Cr-labeled K562 cells, cells alone 0.01
Mouse B Cells = conditions: mean and std. dev. of at least 3 experiments, compared to wells with no added ODN, cited from earlier work
NK activity = conditions: cited from earlier work; for % 2C11 Specific Lysis, Effector:Target 50:1 / % 2C11 Specific Lysis, Effector:Target 100:1: 2C11 targets; for % YAC-1 Specific Lysis, Effector:Target 50:1 / % YAC-1 Specific Lysis, Effector:Target 100:1: YAC-1 targets
[1] = tested on: Murine IL-6 production and B cell activation; conditions: cited from earlier work; for IL-6 (pg/ml) CH12.LX: CH12.LX cells; for SI (stimulation index, [3H] uridine uptake, fold increase from unstimulated control): cells stimulated with 20 μM CpG O-ODN; for SI (stimulation index, [3H] uridine uptake, fold increase from unstimulated control) / SI (stimulation index, [3H] uridine uptake): mean ± SD of triplicates; for SI (stimulation index, [3H] uridine uptake): fold increase from unstimulated control, 20 μM CpG O-ODN; for IgM: measured by ELISA, unstimulated culture 547 ± 82 ng/ml; for IL-6 (pg/ml) SPLENIC B CELL: splenic B cells
human PBMC = conditions: cited from earlier work
[2] = unstimulated control ≤10 pg/ml, US 6,239,116 Table 2
[3] = ODN 12 μg/ml, 4 hr, 10% autologous serum, level above wells with no ODN, ELISA
[4] = ODN 12 μg/ml, 24 hr, 10% autologous serum, level above wells with no ODN, ELISA

## 1761 (DNA TACCGCGTGCGACCCTCT; chemistry not given here) [Oligonucleotide 1761]
NK Lytic Activity
  NK Lytic Activity (LU): 0.05 LU
  LU (NK lytic activity): 0.05 LU

## 3Dd (DNA GAGAACGCTGGACCTTCCAT; Z modified cytosine, further chemistry not given here) [Oligonucleotide 3Dd]
Mouse B Cells; US 6,239,116 Table 1
  Stimulation Index, 3H Uridine: 1.2 ± 0.2
  Stimulation Index, IgM Production: 1.0 ± 0.4
Mouse B Cells
  Stimulation Index, 3H Uridine: 1.2 ± 0.2
NK activity; Effector:Target 50:1
  % 2C11 Specific Lysis, Effector:Target 50:1: 37.0%
  % 2C11 Specific Lysis: 37.0%
  % YAC-1 Specific Lysis: 17.1%
  % YAC-1 Specific Lysis, Effector:Target 50:1: 17.1%
NK activity; Effector:Target 100:1
  % 2C11 Specific Lysis, Effector:Target 100:1: 40.0%
  % 2C11 Specific Lysis: 40.0%
  % YAC-1 Specific Lysis: 27.0%
  % YAC-1 Specific Lysis, Effector:Target 100:1: 27.0%

## 1778 (DNA ACCATGGACGACCTGTTTCCCCTC; chemistry not given here) [Oligonucleotide 1778]
NK Lytic Activity
  NK Lytic Activity (LU): 0.01 LU
  LU (NK lytic activity): 0.01 LU

## 1781 (DNA ACCATGGACGTTCTGTTTCCCCTC; chemistry not given here) [Oligonucleotide 1781]
NK Lytic Activity
  NK Lytic Activity (LU): 0.38 LU
  LU (NK lytic activity): 0.38 LU

## 1834 (DNA TCTCCCAGCGGGCGCAT; chemistry not given here) [Oligonucleotide 1834]
NK Lytic Activity
  NK Lytic Activity (LU): 0.00 LU
  LU (NK lytic activity): 0.00 LU

## 1825 (DNA CTGCTGAGACTGGAG; chemistry not given here) [Oligonucleotide 1825]
NK Lytic Activity
  NK Lytic Activity (LU): 0.01 LU
  LU (NK lytic activity): 0.01 LU

## 1851 (DNA TCCTGACGTTCCTGACGTT; chemistry not given here) [Oligonucleotide 1851]
NK Lytic Activity
  NK Lytic Activity (LU): 2.32 LU
  LU (NK lytic activity): 2.32 LU

## 1829 (DNA ATGACGTTCCTGACGTT; chemistry not given here) [Oligonucleotide 1829]
NK Lytic Activity
  NK Lytic Activity (LU): 0.42 LU
  LU (NK lytic activity): 0.42 LU

## 1842 (DNA TCGTCGCTGTCTCCGCTTCTT; chemistry not given here) [Oligonucleotide 1842]
NK Lytic Activity
  NK Lytic Activity (LU): 0.06 LU
  LU (NK lytic activity): 0.06 LU

## 1836 (DNA TCTCCCAGCGCGCGCCAT; chemistry not given here) [Oligonucleotide 1836]
NK Lytic Activity
  NK Lytic Activity (LU): 0.46 LU
  LU (NK lytic activity): 0.46 LU

## 1754 (DNA ACCATGGACGATCTGTTTCCCCTC; chemistry not given here) [Oligonucleotide 1754]
NK Lytic Activity
  NK Lytic Activity (LU): 0.02 LU
  LU (NK lytic activity): 0.02 LU

## 1828 (DNA TCAGCGTGCGCC; chemistry not given here) [Oligonucleotide 1828]
NK Lytic Activity
  NK Lytic Activity (LU): 0.01 LU
  LU (NK lytic activity): 0.01 LU

## 1776 (DNA ACCATGGACGAACTGTTTCCCCTC; chemistry not given here) [Oligonucleotide 1776]
NK Lytic Activity
  NK Lytic Activity (LU): 0.03 LU
  LU (NK lytic activity): 0.03 LU

## 1 (DNA GCTAGACGTTAGCGT; chemistry not given here) [Oligonucleotide 1]
Mouse B Cells; US 6,239,116 Table 1
  Stimulation Index, 3H Uridine: 6.1 ± 0.8
  Stimulation Index, IgM Production: 17.9 ± 3.6
Mouse B Cells
  Stimulation Index, 3H Uridine: 6.1 ± 0.8
NK activity; Effector:Target 50:1
  % 2C11 Specific Lysis, Effector:Target 50:1: 38.7%
  % 2C11 Specific Lysis: 38.7%
  % YAC-1 Specific Lysis: 16.1%
  % YAC-1 Specific Lysis, Effector:Target 50:1: 16.1%
NK activity; Effector:Target 100:1
  % 2C11 Specific Lysis, Effector:Target 100:1: 47.2%
  % 2C11 Specific Lysis: 47.2%
  % YAC-1 Specific Lysis: 24.5%
  % YAC-1 Specific Lysis, Effector:Target 100:1: 24.5%

## 1615 (DNA TCCATGGCGGTCCTGATGCT; chemistry not given here) [Oligonucleotide 1615]
[1]
  IL-6 (pg/ml) CH12.LX: 1201 ± 155 pg/mL
  SI (stimulation index, [3H] uridine uptake, fold increase from unstimulated control): 3.7 ± 0.3
  SI (stimulation index, [3H] uridine uptake): 3.7 ± 0.3
  IgM: 3212 ± 617 ng/mL
  IL-6 (pg/ml) SPLENIC B CELL: 850 ± 202 pg/mL
[1]; [2]
  IL-6 (pg/ml) CH12.LX: 1201 ± 155 pg/mL
  IL-6 (pg/ml) SPLENIC B CELL: 850 ± 202 pg/mL
Human PBMC; [3]
  TNF-α: 145 pg/mL
Human PBMC; [4]
  GM-CSF: 45 pg/mL
  IFN-γ: 7.8 pg/mL
  IL-6: 600 pg/mL
  IL-12: 145 pg/mL
Human PBMC
  GM-CSF: 45
  IFN-γ: 7.8
  IL-6: 600
  IL-12: 250
  TNF-α: 145

## 1824 (DNA CACGTTGAGGGGCAT; chemistry not given here) [Oligonucleotide 1824]
NK Lytic Activity
  NK Lytic Activity (LU): 0.01 LU
  LU (NK lytic activity): 0.01 LU

## 1780 (DNA ACCATGGACGGTCTGTTTCCCCTC; chemistry not given here) [Oligonucleotide 1780]
NK Lytic Activity
  NK Lytic Activity (LU): 0.29 LU
  LU (NK lytic activity): 0.29 LU

## 1777 (DNA ACCATGGACGAGCTGTTTCCCCTC; chemistry not given here) [Oligonucleotide 1777]
NK Lytic Activity
  NK Lytic Activity (LU): 0.05 LU
  LU (NK lytic activity): 0.05 LU

## 1618 (DNA TCCATGACGTTCCTGATGCT; chemistry not given here) [Oligonucleotide 1618]
[1]
  IL-6 (pg/ml) CH12.LX: 2109 ± 291 pg/mL
  SI (stimulation index, [3H] uridine uptake, fold increase from unstimulated control): 12.9 ± 0.7
  SI (stimulation index, [3H] uridine uptake): 12.9 ± 0.7
  IgM: 10425 ± 674 ng/mL
  IL-6 (pg/ml) SPLENIC B CELL: 2596 ± 166 pg/mL
[1]; [2]
  IL-6 (pg/ml) CH12.LX: 2109 ± 291 pg/mL
  IL-6 (pg/ml) SPLENIC B CELL: 2596 ± 166 pg/mL
Human PBMC; [3]
  TNF-α: 60 pg/mL
Human PBMC; [4]
  GM-CSF: 15.6 pg/mL
  IFN-γ: 15.6 pg/mL
  IL-6: 300 pg/mL
  IL-12: 62 pg/mL
Human PBMC
  GM-CSF: 15.6
  IFN-γ: 15.6
  IL-6: 300
  IL-12: 62
  TNF-α: 60

## 1779 (DNA ACCATGGACGTACTGTTTCCCCTC; chemistry not given here) [Oligonucleotide 1779]
NK Lytic Activity
  NK Lytic Activity (LU): 0.02 LU
  LU (NK lytic activity): 0.02 LU

## 1823 (DNA GCATGACGTTGAGCT; chemistry not given here) [Oligonucleotide 1823]
NK Lytic Activity
  NK Lytic Activity (LU): 0.08 LU
  LU (NK lytic activity): 0.08 LU
